# Assay results from US5591741A, “Fungicidal spiroheterocyclic derivatives” (American Cyanamid Company, priority 1993, dated 1997).
# What was measured:
# Leptosphaeria nodorum = assay: Activity against wheat leafspot (LN); assay type: in vivo; details: direct therapeutic foliar spray, 600 ppm, 6-8 days
# Summary of the method: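 Wheat cv Norman at single-leaf stage spray-inoculated with 1.5×10^6 conidia/ml, held 24 h at high humidity, then sprayed therapeutically with test compound at 600 ppm. Kept 6-8 days at 22° C, 70% humidity; lesion density per leaf rated against untreated or diluent-sprayed controls.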
# [1] = tested on: Erysiphe graminis f.sp. hordei; assay: Direct protectant activity against barley powdery mildew (EGP); assay type: in vivo; details: direct protectant foliar spray, 8 days
# Summary of the method: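 Barley seedlings (cv Golden Promise, single-leaf stage) were foliar-sprayed, held 24 h at 18 °C/40% RH, then dusted with mildew conidia. After 8 days at 18 °C/40% RH, sporulating leaf area was scored as a rating against untreated or diluent-sprayed controls.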
# Plasmopara viticola = assay: Antisporulant activity against vine downy mildew (PVA); assay type: in vivo; details: vine leaves, antisporulant foliar spray, 600 ppm, 750 l/ha
# Summary of the method: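 Cabernet Sauvignon vines (~8 cm) inoculated on lower leaf surfaces with 5×10^4 zoosporangia/ml, held 24 h at 21° C high humidity then 24 h glasshouse. Infected leaves sprayed underside with 600 ppm compound in 1:1 water/acetone, 0.04% Tween 20, 750 l/ha; 96 h glasshouse, 24 h humidity. Sporulating leaf area rated versus control.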
# Venturia inaequalis = assay: Activity against apple scab in-vitro (VII); assay type: cell-based; details: 10 ppm, 10 days, 20° C., mycelial growth
# Summary of the method: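 Compound in acetone was tested at 10 ppm final in half-strength Potato Dextrose Broth inoculated with V. inaequalis mycelial fragments and spores at 5×10^4 propagules/ml. After 10 days at 20° C, mycelial growth was rated against untreated or diluent controls.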
# Alternaria solani = assay: Activity against tomato early blight (AS); assay type: in vivo; details: Table VI; tomato seedlings, contact prophylactic foliar spray, 4 days
# Summary of the method: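 Foliar contact prophylactic spray on tomato seedlings (cv Outdoor Girl, second true leaf expanded) in acetone/water 50:50 with 0.04% Tween 20; 24 h at 20° C, 40% R.H., then inoculation with 10^4 spores/ml A. solani conidia. Kept moist at 21° C; lesion cover rated 4 days post-inoculation against untreated or diluent-sprayed controls.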
# [2] = tested on: Pseudocercosporella herpotrichoides; assay: Activity against wheat eyespot in-vitro (PHI); assay type: cell-based; details: 10 ppm, 10 days, 20° C., mycelial growth
# Summary of the method: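 P. herpotrichoides mycelial fragments (5×10^4/ml) grown in half-strength PDB with compound at 10 ppm final, added from acetone. Incubated 10 days at 20 °C; mycelial growth rated against untreated or diluent controls.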
# Botrytis cinerea = assay: Direct protectant activity against broad bean grey mould (BCB); assay type: in vivo; details: direct protectant foliar spray, 600 ppm, 4 days
# Summary of the method: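 Broad bean plants (cv The Sutton, two leaf pairs) sprayed on upper leaf surfaces at 600 ppm, then inoculated 24 h later with 10^6 conidia/ml. Kept 4 days at 22 °C, high humidity; disease control rated from % leaf area with lesions against untreated or diluent controls.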
# Pyricularia oryzae = assay type: in vivo; details: rice seedlings, direct therapeutic foliar spray, 600 ppm, 4-5 days
# Phytophthora infestans = assay type: in vivo; details: tomato, direct protectant foliar spray
# Rhizoctonia solani = assay: Activity against Rhizoctonia in-vitro (RSI); assay type: cell-based; details: 10 ppm, 10 days, 20° C., mycelial growth
# Summary of the method: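 R. solani mycelial fragments (5×10^4/ml) in half-strength Potato Dextrose Broth with compound added from acetone to 10 ppm final. Mycelial growth assessed after 10 days at 20° C, rated against untreated or diluent control.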
# [3] = tested on: Erysiphe graminis f.sp. hordei; assay: Activity against barley powdery mildew, direct therapeutic (EGT); assay type: in vivo; details: direct therapeutic foliar spray, 600 ppm, up to 7 days
# Summary of the method: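 Barley seedlings (cv. Golden Promise, single-leaf stage) were dusted with mildew conidia one day before a therapeutic foliar spray of 600 ppm compound. Plants were kept at 18 °C and 40% humidity for up to 7 days, and sporulating leaf area was rated against untreated or diluent-sprayed controls.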
SMILES,disease control rating LN (Leptosphaeria nodorum),disease control rating EGP [1],disease control rating PVA (Plasmopara viticola),disease control rating VII (Venturia inaequalis),disease control rating AS (Alternaria solani),disease control rating PHI [2],disease control rating BCB (Botrytis cinerea),disease control rating PO (Pyricularia oryzae),disease control rating PIP (Phytophthora infestans),disease control rating RSI (Rhizoctonia solani),disease control rating EGT [3]
CCN(CC)C1COC2(CCC(C(C)(C)C)CC2)C1 (stereo not shown) [Compound 68],0 (less than 50% disease control),2 (greater than 80% disease control),0 (less than 50% disease control),1 (about 50-80% disease control),0 (less than 50% disease control),0 (less than 50% disease control),0 (less than 50% disease control),1 (about 50-80% disease control),0 (less than 50% disease control),0 (less than 50% disease control),2 (greater than 80% disease control)
CCCCCCN(CCCCCC)C1COC2(CCC(C(C)(C)C)CC2)C1 (stereo not shown) [Compound 69],0 (less than 50% disease control),2 (greater than 80% disease control),0 (less than 50% disease control),2 (greater than 80% disease control),0 (less than 50% disease control),0 (less than 50% disease control),0 (less than 50% disease control),1 (about 50-80% disease control),0 (less than 50% disease control),0 (less than 50% disease control),2 (greater than 80% disease control)
CC(C)(C)C1CCC2(CC1)CC(NC1CCCC1)CO2 (stereo not shown) [Compound 70],0 (less than 50% disease control),2 (greater than 80% disease control),0 (less than 50% disease control),1 (about 50-80% disease control),1 (about 50-80% disease control),0 (less than 50% disease control),0 (less than 50% disease control),0 (less than 50% disease control),2 (greater than 80% disease control),0 (less than 50% disease control),2 (greater than 80% disease control)
CC(C)(C)C1CCC2(CC1)CC(NC1CC1)CO2 (stereo not shown) [Compound 71],1 (about 50-80% disease control),2 (greater than 80% disease control),0 (less than 50% disease control),1 (about 50-80% disease control),0 (less than 50% disease control),0 (less than 50% disease control),0 (less than 50% disease control),0 (less than 50% disease control),2 (greater than 80% disease control),0 (less than 50% disease control),2 (greater than 80% disease control)
CCCCCN(CC)C1COC2(CCC(C(C)(C)C)CC2)C1 (stereo not shown) [Compound 72],0 (less than 50% disease control),2 (greater than 80% disease control),0 (less than 50% disease control),1 (about 50-80% disease control),0 (less than 50% disease control),0 (less than 50% disease control),0 (less than 50% disease control),0 (less than 50% disease control),0 (less than 50% disease control),0 (less than 50% disease control),2 (greater than 80% disease control)
CCCCCN(CCC)C1COC2(CCC(C(C)(C)C)CC2)C1 (stereo not shown) [Compound 73],0 (less than 50% disease control),2 (greater than 80% disease control),0 (less than 50% disease control),0 (less than 50% disease control),0 (less than 50% disease control),0 (less than 50% disease control),1 (about 50-80% disease control),0 (less than 50% disease control),0 (less than 50% disease control),0 (less than 50% disease control),2 (greater than 80% disease control)
CCCCCN(CCCC)C1COC2(CCC(C(C)(C)C)CC2)C1 (stereo not shown) [Compound 74],0 (less than 50% disease control),2 (greater than 80% disease control),0 (less than 50% disease control),0 (less than 50% disease control),0 (less than 50% disease control),0 (less than 50% disease control),0 (less than 50% disease control),0 (less than 50% disease control),0 (less than 50% disease control),0 (less than 50% disease control),2 (greater than 80% disease control)
CCCCCN(CC(C)C)C1COC2(CCC(C(C)(C)C)CC2)C1 (stereo not shown) [Compound 75],0 (less than 50% disease control),2 (greater than 80% disease control),0 (less than 50% disease control),0 (less than 50% disease control),0 (less than 50% disease control),0 (less than 50% disease control),2 (greater than 80% disease control),0 (less than 50% disease control),0 (less than 50% disease control),0 (less than 50% disease control),2 (greater than 80% disease control)
